Experimental data as given in patent US8076103B2, “Eukaryotic expression system for the incorporation of stable isotopes into proteins” (The Board of Trustees of the Leland Stanford Junior …, priority 2007, dated 2011).

Target: T1, human β2AR (Homo sapiens, UniProt P07550)
T1 construct: made in house; host or cells: Trichoplusia ni larvae orally infected with occluded recombinant baculovirus; crude membrane fraction
Test: Saturation binding of [^3H]-dihydroalprenolol to T. ni membranes expressing β2AR
Details: 4 days after oral infection
Method: This vector was used to produce orally infectious occluded baculovirus as follows. Sf9 cells were infected with above vector and allowed to grow for approximately four days until their nuclei were filled with polyhedral inclusion bodies (PIBs). The cells were pelleted by centrifugation, and lysed by resuspension and douncing in SDS (0.5%). PIBs were pelleted from the lysate by a high-speed spin, washed with sodium chloride (500 mM), and resuspended in distilled water. T. ni larvae were infected with occluded baculovirus by applying drops of purified PIBs (˜10^7 PIBs per cube) to small cubes of insect diet. Newly molted 5th instar larvae (mass ˜100 mg) were starved for 6 hours and then permitted to feed on the infected diet. […] These larvae were frozen in liquid nitrogen and stored at −80° C. Larvae were subsequently lysed and a crude membrane fraction was prepared. Saturation binding was performed with [^3H]dihydroalprenolol, a βAR antagonist.

T1 sequence (P07550 whole entry): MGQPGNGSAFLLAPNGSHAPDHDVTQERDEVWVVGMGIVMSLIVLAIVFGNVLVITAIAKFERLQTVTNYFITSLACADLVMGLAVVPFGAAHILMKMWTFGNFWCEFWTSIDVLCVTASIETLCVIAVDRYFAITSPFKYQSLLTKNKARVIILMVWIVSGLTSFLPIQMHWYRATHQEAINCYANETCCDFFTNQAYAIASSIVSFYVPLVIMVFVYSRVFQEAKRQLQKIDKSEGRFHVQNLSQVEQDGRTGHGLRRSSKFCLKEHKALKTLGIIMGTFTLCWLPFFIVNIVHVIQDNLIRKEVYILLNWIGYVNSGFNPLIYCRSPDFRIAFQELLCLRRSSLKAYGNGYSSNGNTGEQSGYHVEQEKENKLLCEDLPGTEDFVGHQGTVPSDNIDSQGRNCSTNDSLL

- Bmax: 16 pmol/mg total protein
- Kd: 1.6 nM
Compound: CCCc1ccccc1OCC(O)CNC(C)C (centres unmarked) [[^3H]-dihydroalprenolol]
